Data published in patent US20250188079A1, “INHIBITING CYCLIC AMP-RESPONSIVE ELEMENT-BINDING PROTEIN (CREB)” (Forma Therapeutics, Inc., priority 2019, published 2025).

Biological target: CBP (Homo sapiens (Human), UniProt Q92793)
Assay: HTRF biochemical assay for CBP activity (TR-FRET, bromodomain)
Format: binding
Conditions: geometric mean, 10-point 3-fold dilution 33 μM to 1.7 nM, read-out: BROMO IC50 TRF TB CBP (μM gmean)
In short: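 IC50 derives from a 4-parameter logistic fit of % inhibition, calculated from the 520/490 nm TR-FRET ratio against DMSO and no-enzyme controls. Final compound levels spanned 33 μM to 1.7 nM (10 points, 3-fold), with CBP and peptide ligand in Hepes pH 7.5/GSH/BGG/BSA/Triton buffer, incubated at room temperature for varying times.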

CBP, sequence (Q92793 1085-1192): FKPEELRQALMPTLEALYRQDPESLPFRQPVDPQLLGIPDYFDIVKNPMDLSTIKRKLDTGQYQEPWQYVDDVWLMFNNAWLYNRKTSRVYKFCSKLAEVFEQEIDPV

Row | Compound | IC50
1 | COC(=O)N1CCc2ccc3c(nc(N4CCN(C(=O)C5COC5)CC4)n3[C@H](C)Cc3ccccc3)c2C1 [Compound 79] | 0.001 to 0.01 µM
2 | COC(=O)N1CCc2ccc3c(nc([C@H]4CC[C@H](C(=O)NS(C)(=O)=O)CC4)n3[C@H](C)Cc3ccccc3)c2C1 (single isomer, unassigned) [Compound 290] | 0.1 to 1 µM
3 | COC(=O)N1CCc2ccc3c(nc(C45CC(C4)C5)n3C[C@H](C(=O)O)c3ccccc3)c2C1 [Compound 128] | 0.001 to 0.01 µM
4 | COC(=O)N1CCc2ccc3c(nc([C@H]4CCC[C@H](C(=O)O)C4)n3Cc3ccc(OC(F)F)cc3)c2C1 [Compound 209] | 0.01 to 0.1 µM
5 | COC(=O)N1CCc2ccc3c(nc(C4CCN(S(C)(=O)=O)CC4)n3[C@H](C)Cc3cccc(C(=O)O)c3)c2C1 [Compound 331] | 0.1 to 1 µM
6 | COC(=O)N1CCc2ccc3c(nc([C@H]4CC[C@H](C(=O)O)CC4)n3CCc3ccc(OC(F)F)cc3)c2C1 [Compound 155] | 0.001 to 0.01 µM
7 | COC(=O)N1CCc2ccc3c(nc(C4CCCC4)n3C[C@@H](C(=O)O)c3ccccc3)c2C1 [Compound 205] | 0.01 to 0.1 µM
8 | COC(=O)N1CCc2ccc3c(nc([C@H]4CC[C@@H](OC)CC4)n3C[C@H](C(=O)O)c3ccccc3)c2C1 [Compound 250] | 0.01 to 0.1 µM
9 | COC(=O)N1CCc2ccc3c(nc([C@@H]4CCC[C@@H](C(=O)O)C4)n3C(C)Cc3ccccc3)c2C1 (stereo in doubt) [Compound 298, (1R,3R)-3-[8-(methoxycarbonyl)-3-[(2R)-1-phenylpropan-2-yl]-3H,6H,7H,8H,9H-imidazo[4,5-h]isoquinolin-2-yl]cyclohexane-1-carboxylic acid] | 0.1 to 1 µM
10 | (3S)-4-[2-cyclohexyl-8-(methoxycarbonyl)-3H,6H,7H,8H,9H-imidazo[4,5-h]isoquinolin-3-yl]-3-(3-fluoro-5-methoxyphenyl)butanoic acid [Compound 10] | 0.001 to 0.01 µM
11 | COC(=O)N1CCc2ccc3c(nc(-c4cccc([C@](C)(O)C(=O)O)c4)n3[C@H](C)Cc3ccccc3)c2C1 [Compound 140] | 0.001 to 0.01 µM
12 | COC(=O)N1CCc2ccc3c(nc([C@H]4CC[C@@H](S(N)(=O)=O)CC4)n3[C@@H](C)Cc3ccccc3)c2C1 [Compound 166] | 0.001 to 0.01 µM
13 | COC(=O)N1CCc2ccc3c(nc([C@@H]4CCCOC4)n3C[C@H](C(=O)O)c3ccccc3)c2C1 [Compound 257] | 0.01 to 0.1 µM
14 | COC(=O)N1CCc2ccc3c(nc([C@H]4CC[C@H](C(=O)O)CC4)n3[C@@H](C)C(F)(F)c3ccccc3)c2C1 [Compound 338] | 0.1 to 1 µM
15 | COC(=O)N1CCc2ccc3c(nc(C4CCN(S(C)(=O)=O)CC4)n3[C@@H](C)Cc3ccccc3)c2C1 [Compound 139] | 0.001 to 0.01 µM
16 | COC(=O)N1CCc2ccc3c(nc([C@H]4CC[C@H](C(=O)O)CC4)n3[C@@H](C)Cc3ccc(C)c(F)c3)c2C1 (single isomer, unassigned) [Compound 2] | 0.001 to 0.01 µM
17 | COC(=O)N1CCc2ccc3c(nc(C4CCN(C(C)=O)CC4)n3[C@@H](C)Cc3cccnc3)c2C1 [Compound 207] | 0.01 to 0.1 µM
18 | COC(=O)N1CCc2c([C@@H]3CCOC3)cc3c(nc([C@H]4CC[C@H](C(=O)O)CC4)n3[C@H](C)Cc3ccccc3)c2C1 [Compound 44] | 0.001 to 0.01 µM
19 | COC(=O)N1CCc2ccc3c(nc(C4CCCCC4)n3C[C@H](C(=O)O)c3cccc(F)c3F)c2C1 (single isomer, unassigned) [Compound 26] | 0.001 to 0.01 µM
20 | COC(=O)N1CCc2ccc3c(nc(N4CCCCC4)n3[C@H](C)Cc3cccc(C(=O)O)c3)c2C1 (single isomer, unassigned) [Compound 33] | 0.001 to 0.01 µM

Row | Compound | IC50
21 | COC(=O)N1CCc2ccc3c(nc(C4CCCCC4)n3C[C@@H](C(=O)O)C3CCCCC3)c2C1 [Compound 281] | 0.01 to 0.1 µM
22 | COC(=O)N1CCc2ccc3c(nc(N4CCN(C(=O)CO)CC4)n3[C@@H](C)Cc3ccccc3)c2C1 [Compound 164] | 0.001 to 0.01 µM
23 | COC(=O)N1CCc2ccc3c(nc(-c4cccc(CC(=O)O)c4)n3[C@@H](C)Cc3ccccc3)c2C1 [Compound 101] | 0.001 to 0.01 µM
24 | COC(=O)N1CCc2ccc3c(nc([C@H]4CC[C@H](C(=O)O)CC4)n3[C@H](C)Cc3ccccc3F)c2C1 [Compound 51] | 0.001 to 0.01 µM
25 | COC(=O)N1CCc2ccc3c(nc([C@H]4CC[C@H](C(=O)O)CC4)n3C[C@@H](OC)c3ccccc3)c2C1 [Compound 214] | 0.01 to 0.1 µM
26 | COC(=O)N1CCc2ccc3c(nc([C@H]4CC[C@H](C(=O)O)CC4)n3[C@H](C)Cc3cccc(F)c3F)c2C1 [Compound 266] | 0.01 to 0.1 µM
27 | COC(=O)N1CCc2ccc3c(nc(C4CCCCC4)n3CC[C@@H]3CCCC[C@@H]3C(=O)O)c2C1 [Compound 219] | 0.01 to 0.1 µM
28 | COC(=O)N1CCc2ccc3c(nc(C4CCN(C(=O)O)CC4)n3[C@H](C)Cc3ccccc3)c2C1 [Compound 134] | 0.001 to 0.01 µM
29 | COC(=O)N1CCc2ccc3c(nc(C4CCCCC4)n3[C@@H](C)C[C@@H]3CCCC[C@H]3C(=O)O)c2C1 [Compound 210] | 0.01 to 0.1 µM
30 | COC(=O)N1CCc2ccc3c(nc(C4CCCCC4)n3[C@@H](C)CC3CCCC[C@@H]3C(=O)O)c2C1 (some centres unmarked) [Compound 39] | 0.001 to 0.01 µM
31 | COC(=O)N1CCc2ccc3c(nc([C@H]4CC[C@H](OC)CC4)n3C[C@@H](C(=O)O)c3ccccc3)c2C1 [Compound 123] | 0.001 to 0.01 µM
32 | COC(=O)N1CCc2c(C(=O)O)cc3c(nc(N4CCCCC4)n3C[C@@H](C)c3ccccc3)c2C1 [Compound 103] | 0.001 to 0.01 µM
33 | COC(=O)N1CCc2ccc3c(nc(C4CCCCC4)n3C[C@@H](C(=O)NS(C)(=O)=O)c3ccccc3)c2C1 (single isomer, unassigned) [Compound 138] | 0.001 to 0.01 µM
34 | COC(=O)N1CCc2ccc3c(nc([C@H]4CC[C@@H](C(=O)O)CC4)n3CC(NC(C)=O)c3ccccc3)c2C1 (some centres unmarked) [Compound 248] | 0.01 to 0.1 µM
35 | COC(=O)N1CCc2ccc3c(nc([C@@H]4CCC[C@@H](C(=O)O)C4)n3[C@@H](C)Cc3ccc(F)c(F)c3)c2C1 [Compound 143] | 0.001 to 0.01 µM
36 | (1R,3R)-3-[3-[(2R)-2-(3,4-difluorophenyl)propyl]-8-(methoxycarbonyl)-3H,6H,7H,8H,9H-imidazo[4,5-h]isoquinolin-2-yl]cyclohexane-1-carboxylic acid [Compound 28] | 0.001 to 0.01 µM
37 | COC(=O)N1CCc2ccc3c(nc([C@@H]4CCC[C@@H](C(=O)O)C4)n3C[C@@H](C)c3ccc(F)c(F)c3)c2C1 (single isomer, unassigned) [Compound 148] | 0.001 to 0.01 µM
38 | COC(=O)N1CCc2c([C@@H]3CCOC3)cc3c(nc([C@H]4CC[C@H](C(=O)O)CC4)n3CCc3ccccc3)c2C1 [Compound 90] | 0.001 to 0.01 µM
39 | COC(=O)N1CCc2ccc3c(nc([C@@H]4CCC[C@@H](C(=O)O)C4)n3[C@H](C)Cc3ccccc3C)c2C1 (single isomer, unassigned) [Compound 284] | 0.01 to 0.1 µM
40 | COC(=O)N1CCc2ccc3c(nc([C@H]4CCC[C@H](C(=O)O)C4)n3[C@H](C)Cc3ccccc3C)c2C1 (single isomer, unassigned) [Compound 163] | 0.001 to 0.01 µM

Row | Compound | IC50
41 | COC(=O)N1CCc2ccc3c(nc([C@H]4CC[C@H](C(=O)O)CC4)n3[C@@H](C)Cc3cc(F)cc(F)c3)c2C1 (single isomer, unassigned) [Compound 3] | 0.001 to 0.01 µM
42 | COC(=O)N1CCc2c([C@H]3CCOC3)cc3c(nc([C@H]4CC[C@H](C(=O)O)CC4)n3CCc3ccccc3)c2C1 [Compound 136] | 0.001 to 0.01 µM
43 | COC(=O)N1CCc2c(C#N)cc3c(nc([C@H]4CC[C@H](C(=O)O)CC4)n3[C@H](C)Cc3ccccc3)c2C1 [Compound 269] | 0.01 to 0.1 µM
44 | COC(=O)N1CCc2ccc3c(nc([C@@H]4CCC[C@@H](C(=O)O)C4)n3[C@@H](C)Cc3ccccc3Cl)c2C1 (single isomer, unassigned) [Compound 20] | 0.001 to 0.01 µM
45 | COC(=O)N1CCc2ccc3c(nc(C4CCCCC4)n3[C@@H](CC(=O)O)c3ccccc3)c2C1 [Compound 213] | 0.01 to 0.1 µM
46 | COC(=O)N1CCc2ccc3c(nc([C@H]4CC[C@H](C(=O)NS(C)(=O)=O)CC4)n3[C@@H](C)Cc3ccccc3)c2C1 (single isomer, unassigned) [Compound 15] | 0.001 to 0.01 µM
47 | COC(=O)N1CCc2ccc3c(nc([C@H]4CC[C@@H](C(=O)O)CC4)n3[C@@H](C)Cc3ccccc3)c2C1 [Compound 230] | 0.01 to 0.1 µM
48 | COC(=O)N1CCc2ccc3c(nc(-c4ccc(C(=O)O)c(OC)c4)n3[C@H](C)Cc3ccccc3)c2C1 [Compound 321] | 0.1 to 1 µM
49 | COC(=O)N1CCc2ccc3c(nc([C@H]4CC[C@H](C(=O)O)CC4)n3[C@@H](C)Cc3cnccn3)c2C1 [Compound 186] | 0.01 to 0.1 µM
50 | COC(=O)N1CCc2ccc3c(nc([C@@H]4CCC[C@@H](C(=O)O)C4)n3Cc3cncc(Cl)n3)c2C1 [Compound 293] | 0.1 to 1 µM
51 | COC(=O)N1CCc2ccc3c(nc(N4CCN(C(C)=O)CC4)n3[C@@H](C)Cc3ccccc3)c2C1 [Compound 324] | 0.1 to 1 µM
52 | COC(=O)N1CCc2ccc3c(nc(N4CCN(C(=O)O)CC4)n3[C@H](C)Cc3ccccc3)c2C1 [Compound 54] | 0.001 to 0.01 µM
53 | COC(=O)N1CCc2ccc3c(nc(C45CC(C4)C5)n3C[C@@H](C(=O)O)c3ccccc3)c2C1 [Compound 246] | 0.01 to 0.1 µM
54 | COC(=O)N1CCc2cc(CC(=O)O)c3c(nc(C4CCCCC4)n3CCc3ccccc3)c2C1 [Compound 158] | 0.001 to 0.01 µM
55 | COC(=O)N1CCc2ccc3c(nc([C@H]4C[C@@H](C(=O)O)C4)n3[C@H](C)Cc3ccccc3C)c2C1 [Compound 340] | 0.1 to 1 µM
56 | COC(=O)N1CCc2ccc3c(nc(C4CCCCC4)n3[C@H](C)Cc3cccc(C(=O)O)c3)c2C1 [Compound 294] | 0.1 to 1 µM
57 | COC(=O)N1CCc2ccc3c(nc(C4CCCCC4)n3CCc3ccccc3)c2C1 [Compound 170] | 0.001 to 0.01 µM
58 | COC(=O)N1CCc2ccc3c(nc(-c4ccc(C(=O)O)cc4)n3[C@H](C)Cc3ccccc3)c2C1 [Compound 279] | 0.01 to 0.1 µM
59 | COC(=O)N1CCc2ccc3c(nc(N4CCC(C(=O)O)CC4)n3[C@@H](C)Cc3ccc(F)c(F)c3)c2C1 (single isomer, unassigned) [Compound 23] | 0.001 to 0.01 µM
